± gives the expanded uncertainty stated by the source.
Assay: activity coefficient (dimensionless); of the first substance listed, at infinite dilution; xn = mol fraction of the nth substance listed
Details: 101 kPa, Liquid, Chromatography, x1 = 0

| Compound | activity coefficient (318.15 K) | activity coefficient (328.15 K) | activity coefficient (338.15 K) | activity coefficient (348.15 K) | activity coefficient (358.15 K) | activity coefficient (368.15 K) |
| --- | --- | --- | --- | --- | --- | --- |
| Cc1ccccc1C [1,2-dimethylbenzene] + CCCC[N+]1(C)CCOCC1.N#C[C-](C#N)C#N | 2.96 ± 0.2 | 2.99 ± 0.2 | 3.02 ± 0.21 | 3.04 ± 0.21 | 3.07 ± 0.21 | 3.08 ± 0.21 |
| Cc1cccc(C)c1 [1,3-dimethylbenzene] + CCCC[N+]1(C)CCOCC1.N#C[C-](C#N)C#N | 3.54 ± 0.24 | 3.56 ± 0.24 | 3.61 ± 0.25 | 3.61 ± 0.25 | 3.62 ± 0.25 | 3.62 ± 0.25 |
| Cc1ccc(C)cc1 [1,4-dimethylbenzene] + CCCC[N+]1(C)CCOCC1.N#C[C-](C#N)C#N | 3.49 ± 0.24 | 3.52 ± 0.24 | 3.54 ± 0.24 | 3.57 ± 0.24 | 3.59 ± 0.24 | 3.63 ± 0.25 |
| C1COCCO1 [1,4-dioxane] + CCCC[N+]1(C)CCOCC1.N#C[C-](C#N)C#N | 0.707 ± 0.047 | 0.74 ± 0.049 | 0.772 ± 0.05 | 0.798 ± 0.052 | 0.831 ± 0.054 | 0.853 ± 0.055 |
| C=CCCCCCCCC [1-decene] + CCCC[N+]1(C)CCOCC1.N#C[C-](C#N)C#N | 118 ± 8 | 110 ± 8 | 101 ± 7 | 94.5 ± 6.5 | 87.8 ± 6 | 81.4 ± 5.6 |
| C=CCCCCC [1-heptene] + CCCC[N+]1(C)CCOCC1.N#C[C-](C#N)C#N | 34.1 ± 2.3 | 32 ± 2.2 | 30.2 ± 2.1 | 28.7 ± 2 | 27.2 ± 1.9 | 25.7 ± 1.8 |
| C#CCCCCC [1-heptyne] + CCCC[N+]1(C)CCOCC1.N#C[C-](C#N)C#N | 8.28 ± 0.56 | 8.26 ± 0.56 | 8.2 ± 0.56 | 8.2 ± 0.56 | 8.13 ± 0.55 | 8.05 ± 0.55 |
| C#CCCCC [1-hexyne] + CCCC[N+]1(C)CCOCC1.N#C[C-](C#N)C#N | 5.47 ± 0.37 | 5.5 ± 0.37 | 5.5 ± 0.37 | 5.54 ± 0.38 | 5.53 ± 0.38 | 5.51 ± 0.38 |
| CCC[N+](=O)[O-] [1-nitropropane] + CCCC[N+]1(C)CCOCC1.N#C[C-](C#N)C#N | 0.982 ± 0.062 | 0.99 ± 0.062 | 0.998 ± 0.062 | 1 ± 0.06 | 1.01 ± 0.06 | 1.01 ± 0.06 |
| C#CCCCCCC [1-octyne] + CCCC[N+]1(C)CCOCC1.N#C[C-](C#N)C#N | 12.8 ± 0.9 | 12.6 ± 0.9 | 12.4 ± 0.8 | 12.2 ± 0.8 | 12 ± 0.8 | 11.8 ± 0.8 |
| C#CCCC [1-pentyne] + CCCC[N+]1(C)CCOCC1.N#C[C-](C#N)C#N | 3.69 ± 0.25 | 3.73 ± 0.25 | 3.75 ± 0.26 | 3.8 ± 0.26 | 3.81 ± 0.26 | 3.83 ± 0.26 |
| CC(C)CC(C)(C)C [2,2,4-trimethylpentane] + CCCC[N+]1(C)CCOCC1.N#C[C-](C#N)C#N | 103 ± 7 | 93.4 ± 6.4 | 84.2 ± 5.8 | 76.9 ± 5.3 | 70.8 ± 4.9 | 64.5 ± 4.4 |
| CCC(C)(C)C [2,2-dimethylbutane] + CCCC[N+]1(C)CCOCC1.N#C[C-](C#N)C#N | 56.7 ± 3.9 | 49.8 ± 3.4 | 44.5 ± 3 | 40.9 ± 2.8 | 37.7 ± 2.6 | 34.8 ± 2.4 |
| CCOC(C)(C)C [2-ethoxy-2-methylpropane] + CCCC[N+]1(C)CCOCC1.N#C[C-](C#N)C#N | 16.8 ± 1.1 | 16.2 ± 1.1 | 15.6 ± 1.1 | 15.3 ± 1 | 14.9 ± 1 | 14.6 ± 1 |
| CCC(C)(C)OC [2-methoxy-2-methylbutane] + CCCC[N+]1(C)CCOCC1.N#C[C-](C#N)C#N | 8.61 ± 0.59 | 8.52 ± 0.58 | 8.42 ± 0.57 | 8.37 ± 0.57 | 8.29 ± 0.57 | 8.21 ± 0.56 |
| COC(C)(C)C [2-methoxy-2-methylpropane] + CCCC[N+]1(C)CCOCC1.N#C[C-](C#N)C#N | 5.74 ± 0.39 | 5.77 ± 0.39 | 5.74 ± 0.39 | 5.76 ± 0.39 | 5.77 ± 0.39 | 5.78 ± 0.39 |
| CC(C)CO [2-methyl-1-propanol] + CCCC[N+]1(C)CCOCC1.N#C[C-](C#N)C#N | 2.19 ± 0.15 | 2.03 ± 0.14 | 1.87 ± 0.13 | 1.74 ± 0.12 | 1.65 ± 0.11 | 1.56 ± 0.1 |
| CC(C)(C)O [2-methylpropan-2-ol] + CCCC[N+]1(C)CCOCC1.N#C[C-](C#N)C#N | 2 ± 0.14 | 1.88 ± 0.13 | 1.77 ± 0.12 | 1.69 ± 0.11 | 1.63 ± 0.11 | 1.58 ± 0.1 |
| CCC(C)CC [3-methylpentane] + CCCC[N+]1(C)CCOCC1.N#C[C-](C#N)C#N | 51.3 ± 3.5 | 46 ± 3.1 | 42.3 ± 2.9 | 38.9 ± 2.7 | 36.3 ± 2.5 | 33.5 ± 2.3 |
| C=C(C)c1ccccc1 [(1-methylethenyl)benzene] + CCCC[N+]1(C)CCOCC1.N#C[C-](C#N)C#N | 2.8 ± 0.19 | 2.89 ± 0.2 | 2.99 ± 0.2 | 3.07 ± 0.21 | 3.15 ± 0.21 | 3.22 ± 0.22 |
| CC(C)=O [acetone] + CCCC[N+]1(C)CCOCC1.N#C[C-](C#N)C#N | 0.741 ± 0.049 | 0.75 ± 0.049 | 0.765 ± 0.05 | 0.774 ± 0.051 | 0.791 ± 0.051 | 0.798 ± 0.052 |
| CC#N [acetonitrile] + CCCC[N+]1(C)CCOCC1.N#C[C-](C#N)C#N | 0.617 ± 0.043 | 0.62 ± 0.043 | 0.624 ± 0.043 | 0.624 ± 0.043 | 0.629 ± 0.043 | 0.63 ± 0.044 |
| c1ccccc1 [benzene] + CCCC[N+]1(C)CCOCC1.N#C[C-](C#N)C#N | 1.53 ± 0.1 | 1.55 ± 0.1 | 1.57 ± 0.1 | 1.58 ± 0.1 | 1.61 ± 0.11 | 1.62 ± 0.11 |
| CCCCO [butan-1-ol] + CCCC[N+]1(C)CCOCC1.N#C[C-](C#N)C#N | 2.18 ± 0.15 | 2.04 ± 0.14 | 1.91 ± 0.13 | 1.79 ± 0.12 | 1.7 ± 0.11 | 1.61 ± 0.11 |
| CCC(C)O (stereo unspecified) [butan-2-ol] + CCCC[N+]1(C)CCOCC1.N#C[C-](C#N)C#N | 2.05 ± 0.14 | 1.93 ± 0.13 | 1.81 ± 0.12 | 1.71 ± 0.11 | 1.64 ± 0.11 | 1.58 ± 0.1 |
| CCCC=O [butanal] + CCCC[N+]1(C)CCOCC1.N#C[C-](C#N)C#N | 1.2 ± 0.08 | 1.24 ± 0.08 | 1.26 ± 0.08 | 1.3 ± 0.08 | 1.33 ± 0.09 | 1.35 ± 0.09 |
